The values that follow come from ChEMBL document CHEMBL4837263, “N-Aromatic-Substituted Indazole Derivatives as Brain-Penetrant and Orally Bioavailable JNK3 Inhibitors” (ACS Med Chem Lett, 2021).

The target of one data set is T1, CYP1A2 (Homo sapiens, UniProt P05177).
T1 sequence (P05177 whole entry): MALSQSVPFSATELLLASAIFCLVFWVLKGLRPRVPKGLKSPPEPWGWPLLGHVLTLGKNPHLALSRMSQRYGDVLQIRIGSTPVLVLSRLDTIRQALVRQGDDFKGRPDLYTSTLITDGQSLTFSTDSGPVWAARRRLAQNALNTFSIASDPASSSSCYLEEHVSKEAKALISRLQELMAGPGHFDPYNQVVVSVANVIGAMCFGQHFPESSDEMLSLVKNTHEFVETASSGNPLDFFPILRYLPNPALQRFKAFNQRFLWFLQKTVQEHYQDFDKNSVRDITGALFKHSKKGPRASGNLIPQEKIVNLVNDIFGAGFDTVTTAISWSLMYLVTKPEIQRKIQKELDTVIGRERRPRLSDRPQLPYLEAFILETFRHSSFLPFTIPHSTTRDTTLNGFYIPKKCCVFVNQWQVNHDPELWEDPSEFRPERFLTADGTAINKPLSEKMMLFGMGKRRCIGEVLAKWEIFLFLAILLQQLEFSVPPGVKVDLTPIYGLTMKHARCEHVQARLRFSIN
Nature of the data set: Inhibition of CYP1A2 (unknown origin) assessed as phenaceten demethylation to acetaminophen at 10 uM by cocktail inhibition assay relative to control. Conditions: probe phenacetin (demethylation to acetaminophen).

A short description of data set [1]: Stability in mouse liver microsome assessed as half life. Conditions: liver microsomes. Format: ADME.
The target in the next data set is CYP2C9 (Homo sapiens, UniProt P11712). The data set can be described thus: Inhibition of CYP2C9 (unknown origin) assessed as tolbutamide hydroxylation to hydrocytolbutamide at 10 uM by cocktail inhibition assay relative to control. The settings on record: probe tolbutamide (hydroxylation to hydroxytolbutamide).
For another data set, the system named is SH-SY5Y. The data set can be described thus: Cytotoxicity against human SH-SY5Y cells assessed as reduction in cell viability at 10 uM measured after 48 hrs by MTT assay. The format is cell-based.
The nature of data set [2]: Stability in human liver microsome assessed as half life. Format: ADME. Conditions: liver microsomes.
In data set [3] the target is T2, Mitogen-activated protein kinase 14 (Homo sapiens, UniProt Q16539). Nature of the data set: Inhibition of p38 alpha (unknown origin) using biotinylated FL-ATF-2 as substrate measured after 22 mins by homogeneous time-resolved fluorescence analysis.
Data set [4] has as its target T3, Mitogen-activated protein kinase 8 (Homo sapiens, UniProt P45983). Nature of the data set: Inhibition of JNK1 (unknown origin) using biotinylated FL-ATF-2 as substrate measured after 22 mins by homogeneous time-resolved fluorescence analysis.
The target in data set [5] is Voltage-gated inwardly rectifying potassium channel KCNH2 (Homo sapiens, UniProt Q12809). Nature of the data set: Inhibition of human ERG expressed in CHO cells at -80 mV holding potential by automated Qpatch electrophysiological method.
The target of data set [6] is T4, Mitogen-activated protein kinase 9 (Homo sapiens, UniProt P45984). The data set can be described thus: Inhibition of JNK2 (unknown origin) using biotinylated FL-ATF-2 as substrate measured after 22 mins by homogeneous time-resolved fluorescence analysis.
Target sequence in this assay (P45984 whole entry): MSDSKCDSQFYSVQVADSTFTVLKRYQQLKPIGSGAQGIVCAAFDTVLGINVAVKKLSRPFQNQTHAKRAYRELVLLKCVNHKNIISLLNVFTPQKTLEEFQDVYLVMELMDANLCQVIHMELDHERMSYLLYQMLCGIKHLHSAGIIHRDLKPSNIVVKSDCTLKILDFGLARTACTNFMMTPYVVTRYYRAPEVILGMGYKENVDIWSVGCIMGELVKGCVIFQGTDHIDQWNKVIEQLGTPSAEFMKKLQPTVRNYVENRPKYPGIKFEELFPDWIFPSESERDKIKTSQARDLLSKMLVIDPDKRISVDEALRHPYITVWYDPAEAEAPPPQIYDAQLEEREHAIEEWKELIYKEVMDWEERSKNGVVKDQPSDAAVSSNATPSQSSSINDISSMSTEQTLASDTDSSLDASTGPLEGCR
A further data set addresses CYP2D6 (Homo sapiens, UniProt P10635). Nature of the data set: Inhibition of CYP2D6 (unknown origin) assessed as bufuralol hydroxylation to 4'-hydroxy bufuralol at 10 uM by cocktail inhibition assay relative to control. Conditions: probe bufuralol (hydroxylation to 4'-hydroxy bufuralol).
The nature of data set [7]: Selectivity index, ratio of IC50 for JNK1 (unknown origin) to IC50 for JNK3 (unknown origin).
Data set [8] addresses Mitogen-activated protein kinase 10 (Rattus norvegicus) (UniProt P49187). The data set can be described thus: Inhibition of JNK3 in rat primary neuron assessed as reduction in phosphorylation of APP at T668 residue at < 1 nM incubated for 30 mins by Western blot analysis. Conditions: dose nM <1, time 30.0 min.
The nature of data set [9]: Selectivity index, ratio of IC50 for p38 alpha (unknown origin) to IC50 for JNK3 (unknown origin).
The next data set addresses CYP3A4 (Homo sapiens, UniProt P08684). Nature of the data set: Inhibition of CYP3A4 (unknown origin) assessed as midazolam hydroxylation to 1'-hydroxy midazolam at 10 uM by cocktail inhibition assay relative to control. Conditions: probe midazolam (hydroxylation to 1'-hydroxy midazolam).
The target of data set [10] is T5, Mitogen-activated protein kinase 10 (Homo sapiens, UniProt P53779). The data set can be described thus: Inhibition of JNK3alpha1 (unknown origin) using biotinylated FL-ATF-2 as substrate measured after 22 mins by homogeneous time-resolved fluorescence analysis.
Data set [11] in a line: Selectivity index, ratio of IC50 for JNK2 (unknown origin) to IC50 for JNK3 (unknown origin).
The target in data set [12] is T6, Casein kinase I isoform epsilon (Homo sapiens, UniProt P49674). Nature of the data set: Inhibition of human CK1E at 1 uM using KRRRAL[pS]VASLPGL as substrate by [gamma-33P]-ATP assay relative to control.
In data set [13] the target is T3, Mitogen-activated protein kinase 8. The data set can be described thus: Inhibition of human JNK1 using ATF2 as substrate by [gamma-33P]-ATP assay. Conditions: dose 1.0 µM.
Data set [14] concerns the target T7, Epithelial discoidin domain-containing receptor 1 (Homo sapiens, UniProt Q08345). The data set can be described thus: Inhibition of human DDR1 at 1 uM using KKSRGDYMTMQIG as substrate by [gamma-33P]-ATP assay relative to control.
In data set [15] the target is T5, Mitogen-activated protein kinase 10. Nature of the data set: Inhibition of human JNK3 at 1 uM using ATF2 as substrate by [gamma-33P]-ATP assay relative to control.
Data set [16] in a line: Drug concentration in C57BL/6J mouse plasma at 30 mg/kg, po measured after 2 hrs by LC-MS/MS analysis. The format is ADME, organism-based.
The target in data set [17] is Protein-tyrosine kinase 6 (Homo sapiens) (UniProt Q13882). Nature of the data set: Inhibition of human BRK at 1 uM using poly[Glu:Tyr](4:1) as substrate by [gamma-33P]-ATP assay relative to control.
Data set [18] can be described thus: Drug concentration in C57BL/6J mouse brain at 30 mg/kg, po measured after 2 hrs by LC-MS/MS analysis. The format is ADME, organism-based. Conditions: read-out: Ct.
Data set [19] has as its target T6, Casein kinase I isoform epsilon. The data set can be described thus: Inhibition of human CK1E using KRRRAL[pS]VASLPGL as substrate by [gamma-33P]-ATP assay.
Data set [20] addresses T4, Mitogen-activated protein kinase 9. Nature of the data set: Inhibition of human JNK2 at 1 uM using ATF2 as substrate by [gamma-33P]-ATP assay relative to control.
Data set [21] deals with T2, Mitogen-activated protein kinase 14. Nature of the data set: Inhibition of human p38alpha at 1 uM using MBP as substrate by [gamma-33P]-ATP assay relative to control.
The target of data set [22] is T7, Epithelial discoidin domain-containing receptor 1. The data set can be described thus: Inhibition of human DDR1 using KKSRGDYMTMQIG as substrate by [gamma-33P]-ATP assay.
The target in another data set is Cytochrome P450 2C9 (Homo sapiens, UniProt P11712). The data set can be described thus: Inhibition of CYP2C9 (unknown origin) by titration method.

Calls of active or inactive are those of the source. No cut-off for these calls is given here.

Sequence of CYP2C9 (P11712 whole entry): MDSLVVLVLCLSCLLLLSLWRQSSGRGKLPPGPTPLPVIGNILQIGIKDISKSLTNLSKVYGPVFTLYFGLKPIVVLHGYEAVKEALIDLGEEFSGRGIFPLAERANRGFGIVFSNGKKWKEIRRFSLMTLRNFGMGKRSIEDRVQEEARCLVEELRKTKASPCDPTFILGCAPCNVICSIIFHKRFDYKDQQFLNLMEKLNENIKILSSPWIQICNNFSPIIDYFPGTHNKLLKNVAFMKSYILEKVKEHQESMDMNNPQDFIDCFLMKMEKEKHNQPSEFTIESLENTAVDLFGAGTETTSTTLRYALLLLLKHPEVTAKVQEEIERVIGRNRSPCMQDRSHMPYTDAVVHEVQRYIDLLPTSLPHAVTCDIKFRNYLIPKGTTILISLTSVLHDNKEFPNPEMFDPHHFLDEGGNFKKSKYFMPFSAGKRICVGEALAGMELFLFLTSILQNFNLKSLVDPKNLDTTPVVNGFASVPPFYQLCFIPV
T2 sequence (Q16539 whole entry): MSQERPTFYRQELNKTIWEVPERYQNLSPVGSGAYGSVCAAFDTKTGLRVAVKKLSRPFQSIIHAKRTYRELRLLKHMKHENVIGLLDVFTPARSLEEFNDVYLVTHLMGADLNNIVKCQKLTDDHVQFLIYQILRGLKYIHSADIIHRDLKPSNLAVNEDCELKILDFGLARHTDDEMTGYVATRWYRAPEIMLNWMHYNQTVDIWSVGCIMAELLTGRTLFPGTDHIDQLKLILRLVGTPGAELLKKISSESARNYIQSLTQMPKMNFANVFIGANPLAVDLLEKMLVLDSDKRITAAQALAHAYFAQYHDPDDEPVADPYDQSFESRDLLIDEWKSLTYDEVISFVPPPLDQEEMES
Sequence of CYP3A4 (P08684 whole entry): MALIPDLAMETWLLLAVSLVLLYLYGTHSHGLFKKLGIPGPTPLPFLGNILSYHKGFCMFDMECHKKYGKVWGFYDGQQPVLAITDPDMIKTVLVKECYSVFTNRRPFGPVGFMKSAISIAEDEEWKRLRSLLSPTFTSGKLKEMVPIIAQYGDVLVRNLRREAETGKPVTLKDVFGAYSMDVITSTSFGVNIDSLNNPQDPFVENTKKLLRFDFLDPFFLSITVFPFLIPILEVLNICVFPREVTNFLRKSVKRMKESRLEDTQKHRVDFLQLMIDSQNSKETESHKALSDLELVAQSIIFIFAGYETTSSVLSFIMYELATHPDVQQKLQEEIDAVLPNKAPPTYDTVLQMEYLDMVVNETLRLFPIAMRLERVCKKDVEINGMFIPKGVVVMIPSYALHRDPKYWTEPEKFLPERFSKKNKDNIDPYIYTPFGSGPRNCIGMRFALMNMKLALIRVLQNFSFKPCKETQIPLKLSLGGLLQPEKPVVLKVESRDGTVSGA
T5 sequence (P53779 whole entry): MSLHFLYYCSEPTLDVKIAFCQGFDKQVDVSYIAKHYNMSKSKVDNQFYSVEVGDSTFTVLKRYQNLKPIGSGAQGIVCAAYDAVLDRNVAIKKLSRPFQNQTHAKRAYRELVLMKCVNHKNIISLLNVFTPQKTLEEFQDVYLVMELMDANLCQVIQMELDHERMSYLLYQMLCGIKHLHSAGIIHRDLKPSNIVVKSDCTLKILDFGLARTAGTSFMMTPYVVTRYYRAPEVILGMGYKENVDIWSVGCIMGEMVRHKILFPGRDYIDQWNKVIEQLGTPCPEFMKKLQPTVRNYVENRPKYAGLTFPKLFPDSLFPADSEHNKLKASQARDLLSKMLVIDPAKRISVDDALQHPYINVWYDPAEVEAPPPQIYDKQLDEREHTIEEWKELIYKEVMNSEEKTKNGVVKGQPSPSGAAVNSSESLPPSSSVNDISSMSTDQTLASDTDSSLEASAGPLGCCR
T3 sequence (P45983 whole entry): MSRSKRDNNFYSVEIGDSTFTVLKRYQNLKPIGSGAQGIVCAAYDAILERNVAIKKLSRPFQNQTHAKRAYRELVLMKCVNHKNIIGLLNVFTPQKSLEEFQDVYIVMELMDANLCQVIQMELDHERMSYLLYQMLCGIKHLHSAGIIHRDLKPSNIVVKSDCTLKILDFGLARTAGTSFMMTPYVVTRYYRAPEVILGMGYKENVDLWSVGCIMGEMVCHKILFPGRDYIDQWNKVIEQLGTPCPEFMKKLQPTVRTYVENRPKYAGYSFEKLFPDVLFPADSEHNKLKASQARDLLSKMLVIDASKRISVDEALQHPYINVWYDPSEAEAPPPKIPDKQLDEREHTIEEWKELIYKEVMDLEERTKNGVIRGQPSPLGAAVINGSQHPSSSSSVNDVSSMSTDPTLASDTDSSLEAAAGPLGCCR
Sequence of Voltage-gated inwardly rectifying potassium channel KCNH2 (Q12809 whole entry): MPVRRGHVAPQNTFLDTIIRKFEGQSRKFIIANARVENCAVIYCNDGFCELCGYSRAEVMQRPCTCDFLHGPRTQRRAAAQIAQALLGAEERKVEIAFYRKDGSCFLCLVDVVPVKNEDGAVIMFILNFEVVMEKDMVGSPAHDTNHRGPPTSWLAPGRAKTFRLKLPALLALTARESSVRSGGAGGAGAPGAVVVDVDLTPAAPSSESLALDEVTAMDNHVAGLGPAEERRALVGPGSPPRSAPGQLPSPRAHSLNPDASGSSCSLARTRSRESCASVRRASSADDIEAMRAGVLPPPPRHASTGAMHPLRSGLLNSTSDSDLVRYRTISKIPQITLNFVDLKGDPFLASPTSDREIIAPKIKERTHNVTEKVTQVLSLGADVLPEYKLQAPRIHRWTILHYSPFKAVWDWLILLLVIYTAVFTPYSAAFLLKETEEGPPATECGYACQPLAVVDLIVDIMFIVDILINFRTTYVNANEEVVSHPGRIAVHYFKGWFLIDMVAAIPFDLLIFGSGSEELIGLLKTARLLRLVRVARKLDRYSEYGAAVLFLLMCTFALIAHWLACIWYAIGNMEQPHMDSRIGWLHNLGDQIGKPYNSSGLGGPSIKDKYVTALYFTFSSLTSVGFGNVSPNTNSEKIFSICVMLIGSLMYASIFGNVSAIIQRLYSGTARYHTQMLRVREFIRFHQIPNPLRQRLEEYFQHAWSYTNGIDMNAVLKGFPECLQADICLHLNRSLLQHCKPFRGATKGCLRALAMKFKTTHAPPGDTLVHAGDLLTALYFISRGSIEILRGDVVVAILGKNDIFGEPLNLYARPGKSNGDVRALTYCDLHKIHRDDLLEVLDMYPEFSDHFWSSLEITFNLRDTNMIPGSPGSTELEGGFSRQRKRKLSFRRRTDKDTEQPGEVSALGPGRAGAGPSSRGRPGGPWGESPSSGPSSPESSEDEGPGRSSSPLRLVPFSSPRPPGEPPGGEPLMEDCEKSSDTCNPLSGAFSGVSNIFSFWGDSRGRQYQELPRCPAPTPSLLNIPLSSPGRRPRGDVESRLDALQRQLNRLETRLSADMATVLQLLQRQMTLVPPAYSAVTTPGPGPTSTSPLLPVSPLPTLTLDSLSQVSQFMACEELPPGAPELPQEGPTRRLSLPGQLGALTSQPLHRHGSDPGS
Sequence of CYP2D6 (P10635 whole entry): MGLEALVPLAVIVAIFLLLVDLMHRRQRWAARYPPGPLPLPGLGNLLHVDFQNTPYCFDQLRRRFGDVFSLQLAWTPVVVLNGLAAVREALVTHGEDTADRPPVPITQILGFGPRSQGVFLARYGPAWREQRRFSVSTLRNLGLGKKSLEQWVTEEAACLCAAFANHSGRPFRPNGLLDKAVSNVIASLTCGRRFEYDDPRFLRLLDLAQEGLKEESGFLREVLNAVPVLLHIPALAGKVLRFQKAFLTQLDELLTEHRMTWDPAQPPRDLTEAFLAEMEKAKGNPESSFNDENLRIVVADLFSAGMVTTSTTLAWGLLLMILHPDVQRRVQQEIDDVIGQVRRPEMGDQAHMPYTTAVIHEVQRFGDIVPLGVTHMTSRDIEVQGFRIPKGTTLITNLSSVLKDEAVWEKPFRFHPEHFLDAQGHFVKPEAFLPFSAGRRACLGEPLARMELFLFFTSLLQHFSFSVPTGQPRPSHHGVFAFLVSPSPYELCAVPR
Sequence of Cytochrome P450 2C9 (P11712 whole entry): as the sequence (P11712 whole entry) above
Sequence of Mitogen-activated protein kinase 10 (Rattus norvegicus) (P49187 whole entry): as the sequence (P53779 whole entry) above, with Q27H, Y32S, I33V, A34V counted along it

`CNC(=O)c1cc(-n2ncc3cc(Nc4ccccc4Cl)c(F)cc32)cs1`: the inhibition at 10 µM on CYP1A2 was 21%; at CYP2C9, 39%; at CYP2D6, -4%; at CYP3A4 it was -13%. The half-life in [1] was 42 min; in [2], 37 min. The Cell viability in the data set with SH-SY5Y stood at 83%. Moreover, the IC50 was 100 nM in [3]; 619 nM in [4]; over 30000 nM in data set [5]; 93 nM in data set [6]; 5 nM in data set [10]. Besides, the Ratio IC50 in [7] was found to be 124; in data set [9], 20; in [11], 18. In addition, in data set [8], the inhibition entry was “Active”.
Consider `O=C(NC1COC1)c1cc(-n2ncc3cc(Nc4ccccc4Cl)c(F)cc32)cs1`, for which the inhibition at 10 µM is 4% on CYP1A2, 41% at CYP2C9, -16% on CYP2D6 and -56% on CYP3A4. Moreover, the half-life in data set [1] was determined as 20 min; in data set [2], 92 min. For the same molecule, the Cell viability in the data set on SH-SY5Y is recorded as 98%. Moreover, the half-maximal inhibitory concentration (IC50) in [3] is 400 nM; in [4] it was 1050 nM; in data set [6], 1330 nM; in data set [10], 14 nM. The Ratio IC50 in data set [7] was determined as 75; in data set [9] it was 29; in data set [11], 95.
Regarding `CNC(=O)c1cc(-n2ncc3cc(Nc4c(F)cccc4Cl)c(C)nc32)cs1`, the inhibition at 10 µM at CYP1A2 was 43%; on CYP2C9 it was 61%; on CYP2D6, 19%; on CYP3A4, -2%. In addition, the half-life in [1] was determined as 17 min; in [2], 26 min. Also, in the data set with SH-SY5Y, the Cell viability stood at 109%. For the same molecule, the half-maximal inhibitory concentration (IC50) in data set [3] is 380 nM; in [4] it was 872 nM; in data set [5] it was over 30000 nM; in [6], 140 nM; in [10], 12 nM. In addition, the Ratio IC50 in data set [7] was found to be 73; in [9], 31; in data set [11], 11.
On to `Cc1nc2c(cnn2-c2csc(C(=O)NC3COC3)c2)cc1Nc1c(F)cccc1Cl`, for which the half-life in [1] amounted to 77 min; in data set [2] it was 92 min. The inhibition turned out to be 78% in [12]; 30% in [13]; 73% in [14]; 89% in data set [15]; 55% in data set [17]; 81% in data set [20]. In addition, in data set [21], the inhibition came out at 75%. The Cell viability in the data set on SH-SY5Y is 116%. Moreover, the concentration at 2 h in [16] turned out to be 5.9 µM; in [18] it was 3.3 µM. Besides, the half-inhibitory concentration (IC50) in data set [6] amounted to 74 nM; in [19], 100 nM; in data set [22], 247 nM. Further, the inhibition entry in data set [8] was “Active”.
Regarding `CNC(=O)c1cc(-n2ncc3cc(Nc4ccccc4Cl)cnc32)cs1`, the inhibition at 10 µM at CYP1A2 stood at 30%; at CYP2C9, 66%; on CYP2D6 it was 30%; at CYP3A4, 57%. Besides, the half-life came to 14 min in data set [1] and 15 min in data set [2]. Moreover, the Cell viability in the data set with SH-SY5Y amounted to 119%. The IC50 in [3] is 481 nM; in data set [4] it was 4730 nM; in data set [5], over 100000 nM; in [6] it was 414 nM; in [10] it was 24 nM; against Cytochrome P450 2C9 it was 4000 nM. Further, the Ratio IC50 in data set [7] came to 197; in [9] it was 20; in data set [11], 17.
For `O=C(NC1COC1)c1cc(-n2ncc3cc(Nc4ccccc4Cl)cnc32)cs1`, the inhibition at 10 µM was 19% on CYP1A2, 76% on CYP2C9, 15% on CYP2D6 and 14% on CYP3A4. For the same molecule, the results for the half-life in data set [1] and in data set [2] were 9 min and 21 min, respectively. In addition, the Cell viability in the data set with SH-SY5Y was 103%. Further, the concentration for half-maximal inhibition (IC50) in data set [3] amounted to 260 nM; in data set [4], 940 nM; in data set [6] it was 256 nM; in data set [10], 6 nM; on Cytochrome P450 2C9 it was 4000 nM. Besides, the Ratio IC50 amounted to 157 in data set [7], 43 in data set [9] and 43 in data set [11].
